Experimental data taken from patent US6867213B2, “(2S)-2-(adamantan-1-ylmethoxycarbonylamino)-3-(4-(2-(1,4,5,6-tetrhydropyrimidin-2-ylcarbamoyl)ethyl)benzoylamino)propionic acid isopropyl ester, its preparation and its use” (Aventis Pharma Deutschland GmbH, priority 2000, dated 2005).
Where a name gives a salt, the structure may show the parent alone.

Tests used:
[1] = test system: thyroparathyroidectomized (TPTX) rats; assay: PTH-induced hypercalcemia in the TPTX rat model of bone resorption; assay type: in vivo, rat (male Sprague Dawley); settings: PTH treated TPTX rats; s.c. twice at 30 mg/kg, at time 0 and 3 h after start of PTH infusion; serum collected at 6 hours
Excerpt: 3) Pharmacological Testing: PTH-Induced Hypercalcemia in the TPTX Rat Model of Bone Resorption
In this in vivo model a stimulation of bone resorption is induced in thyroparathyroidectomized (TPTX) rats by the infusion of parathyroid hormone (PTH). The changes in bone resorption are monitored by measuring the serum calcium concentration which is directly related to the extent of bone resorption.
Male Sprague Dawley rats (OFA-IFFA CREDO, France) weighting 150-200 g were thyroparathyroidectomized by the supplier. The rats were allowed free access to a standard commercial pelleted diet containing 7 g Ca/kg (UAR) and Eau de Volvic water. The success of thyroparathyroidectomy was tested by measuring serum calcium concentrations 8 days after operation in overnight fasted animals. Rats were considered as TPTX when the serum calcium level was <80 mg/l.
For treatment with PTH, rat PTH(1-34) (Bachem) was dissolved in 0.15 M sodium chloride solution containing 2% Cys-HCl and delivered via osmotic minipumps (ALZET 2001D) at 200 pmol/kg/h. […]
Serum total calcium concentrations (=calcemia) were measured colorimetrically (Ciba-Corning) using a IEMS Labsystems microplate reader at 540 nm. The differences between the mean values of calcemia in the groups were analysed for variance and by Dunnett's test. The activity of the test compound was calculated as % effect according to the formula: [formula]

Row | SMILES | melting point [°C] | % effect (on calcemia = serum total calcium concentration) [1] [%]
1 | CC(C)OC(=O)[C@H](CNC(=O)c1ccc(CCC(=O)NC2=NCCCN2)cc1)NC(=O)OCC12CC3CC(CC(C3)C1)C2 (as salt: hydrochloride) [formula IIc, (2S)-2-(Adamantan-1-ylmethoxycarbonylamino)-3-(4-(2-(1,4,5,6-tetrahydropyrimidin-2-ylcarbamoyl)ethyl)benzoylamino)propionic Acid Isopropyl Ester Hydrochloride] | 208 to 210 | –
2 | CC(C)OC(=O)[C@H](CNC(=O)c1ccc(CCC(=O)NC2=NCCCN2)cc1)NC(=O)OCC12CC3CC(CC(C3)C1)C2 [formula IIc, (2S)-2-(Adamantan-1-ylmethoxycarbonylamino)-3-(4-(2-(1,4,5,6-tetrahydropyrimidin-2-ylcarbamoyl)ethyl)benzoylamino)propionic Acid Isopropyl Ester Hydrochloride] | – | −97
